The target in test [1] is CDK1/Cyclin B1 (Homo sapiens (Human), UniProt P06493). As to the kind of experiment: CDK1/Cyclin B1 ADP-Glo Kinase Assay. It is filed as biochemical. Conditions: 80 uM ATP. As for the experimental part:
CDK1/Cyclin B1 ADP-Glo Kinase Assay
(§1) The purpose of CDK1/Cyclin B1 assay is to evaluate the inhibition (% inhibition and IC50 values) of small molecule inhibitors by using a Luminescent based ADP-Glo assay. CDK1/Cyclin B1 catalyzes the production of ADP from ATP. ADP-Glo assay monitors ADP producing biochemical reactions. ADP-Glo is performed in 2 steps upon completion of kinase reaction: a combined termination of kinase reaction and depletion of remaining ATP in the first step, and conversion of generated ADP to ATP and the newly produced ATP to light output using luciferase/luciferin reaction in the second step. The luminescent signal generated is proportional to the ADP concentration produced and is correlated with the kinase activity. CDK1/Cyclin B1 was purchased from Carna (Cat 04-102). Typical reaction solutions (10 uL final reaction volume) contained 2% DMSO (f inhibitor), 10 mM MgCl2, 1 mM EGTA, 0.05% BSA, 2 mM DTT, 80 uM ATP (ATP Km=78.6 uM), 0.01% Brig-35, 0.75 uM substrate, and 4.917 nM CDK1/Cyclin Bl enzyme complex in 50 mM HEPES buffer at pH 7.5. The assay was initiated with the addition of ATP-containing substrate solution, following a 30-minute pre-incubation of enzyme and inhibitor at room temperature in the reaction mixture. The reaction was stopped after 90 minutes at room temperature by the addition of 10 uL of ADP-GLO Reagent. After a 90 minute incubation, 20 uL of Kinase Detection Reagent was added. Samples were incubated for 40 minutes, after which plate well luminescence was measured on a Envision microplate reader. The IC50 determinations were made from a plot of the fractional velocity as a function of inhibitor concentration fit to the 4 parameters IC50 equation.
In general terms: In ADP-Glo the light output rises with the ADP produced.

For test [2], the target named is CDK2/Cyclin E1 full length (Homo sapiens (Human), UniProt P24941). As to the kind of experiment: CDK2/Cyclin E1 Full Length ADP-Glo Kinase Assay. The test is classed as biochemical. To be noted: 20 uM ATP, read-out: CDK2/ CyclinE1 IC50. The procedure: CDK2/Cyclin E1 Full Length ADP-Glo Kinase Assay
The purpose of CDK2/Cyclin E1 assay is to evaluate the inhibition (% inhibition and IC50 values) of small molecule inhibitors by using a Luminescent based ADP-Glo assay. CDK2/Cyclin E1 full length catalyzes the production of ADP from ATP. ADP-Glo assay monitors ADP producing biochemical reactions. ADP-Glo is performed in 2 steps upon completion of kinase reaction: a combined termination of kinase reaction and depletion of remaining ATP in the first step, and conversion of generated ADP to ATP and the newly produced ATP to light output using luciferase/luciferin reaction in the second step. The luminescent signal generated is proportional to the ADP concentration produced and is correlated with the kinase activity. CDK2/Cyclin E1 was purchased from Eurofins (Cat 14-475M). Typical reaction solutions (10 uL final reaction volume) contained 2% DMSO (f inhibitor), 10 mM MgCI2, 1 mM EGTA, 0.05% BSA, 2 mM DTT, 20 uM ATP (ATP Km=64.78 uM), 0.01% Brig-35, 0.75 uM substrate, and 0.328 nM wild-type full length CDK2/Cyclin E1 enzyme complex in 50 mM HEPES buffer at pH 7.5. The assay was initiated with the addition of ATP-containing substrate solution, following a 30-minute pre-incubation of enzyme and inhibitor at room temperature in the reaction mixture. The reaction was stopped after 90 minutes at room temperature by the addition of 10 uL of ADP-GLO Reagent. After a 90 minute incubation, 20 uL of Kinase Detection Reagent was added. Samples were incubated for 40 minutes, after which plate well luminescence was measured on a Envision microplate reader. The IC50 determinations were made from a plot of the fractional velocity as a function of inhibitor concentration fit to the 4 parameters IC50 equation.

The target in test [3] is CDK4/Cyclin D1 (Homo sapiens (Human), UniProt P11802). Kind of test: CDK4/Cyclin D1 CHEF Assay (AQT0258 peptide). It is filed as biochemical. Conditions: 200 uM ATP, read-out: CDK4/ CyclinD1 AQT IC50. The text has this:
CDK4/Cyclin D1 CHEF Assay
The purpose of CDK4/Cyclin Dl assay is to evaluate the inhibition (% inhibition and IC50 values) of small molecule inhibitors by using a Chelation-Enhance Fluorescence (CHEF) assay. In a CHEF assay, phosphorylation of a peptide substrate results in proportional increase in fluorescence. CHEF kinase assay use peptide substrates containing a synthetic alpha-amino acid with a side chain bearing an 8-hydroxyquinoline derivative (sulfonamido-oxide, Sox). Upon phosphorylation of a nearby serine, threonine or tyrosine and in the presence of Mg(II), the spectral properties of the Sox residue are altered, emitting 485 nm wavelength light when excited with a 360 nm wavelength light source. CDK4/Cyclin D1 catalyzes the phosphoryl transfer to the SOX-labeled substrate peptide AQT0258 from Assayquant Technologies. Typical reaction solutions contained 2% DMSO (+/−inhibitor), 10 mM MgCl2, 1 mM DTT, 200 uM ATP (ATP Km=195.2 uM), 0.012% Brig-35, 10 uM AQT0258 peptide, 0.02% BSA, 1% Glycerol, 0.55 mM EGTA, 2.5 nM CDK4/Cyclin D1 in 54 mM HEPES buffer at pH 7.5. The reaction was initiated with the addition of substrate solution, following a 30-minute pre-incubation of enzyme and inhibitor at 22° C. in the reaction mix. Reactions were allowed to proceed for 3 hrs at 22° C., followed by fluorescence read of the reaction. The IC50 determinations were made from a plot of the fractional velocity as a function of inhibitor concentration fit to the 4 parameters IC50 equation.

For test [4], the target named is CDK6/Cyclin D3 (Homo sapiens (Human), UniProt Q00534). As to the kind of experiment: CDK6/Cyclin D3 ADP-Glo Kinase Assay. It is filed as biochemical. To be noted: 100 uM ATP, read-out: CDK6/ CyclinD3 IC50. The procedure: CDK6/Cyclin D3 ADP-Glo Kinase Assay
as §1, with “of the CDK6/Cyclin D3” for “of CDK1/Cyclin B1”, “values) in the presence” for “values)”, “assay. CDK6/Cyclin D3” for “assay. CDK1/Cyclin B1”, “activity. CDK6/Cyclin D3” for “activity. CDK1/Cyclin B1”, “from Carna. […]” for “from Carna (Cat 04-102). Typical reaction solutions (10 uL final reaction volume) contained 2% DMSO (f inhibitor), 10 mM MgCl2, 1 mM EGTA, 0.05% BSA, 2 mM DTT, 80 uM ATP (ATP Km=78.6 uM), 0.01% Brig-35, 0.75 uM substrate, and 4.917 nM CDK1/Cyclin Bl enzyme complex in 50 mM HEPES buffer at pH 7.5.”, “a 90-minute” for “a 90 minute”

Test [5] has as its system OVCAR-3 cells. As to the kind of experiment: Cell Growth Inhibition, OVCAR-3 (CellTiterGlo, 6 days). It is filed as cell-based. Conditions: OVCAR-3, 6-day treatment, CellTiterGlo 2.0. The text has this: (§2) MCF-7 and OVCAR-3 cells were used to evaluate the anti-proliferation activity of the CDK inhibitors. MCF-7 (ATCC, HTB-22) cells are epithelial cells from a patient with ER+ metastatic adenocarcinoma. OVCAR-3 (ATCC, HTB-161) cells were derived from malignant ascites of a patient with ovarian cancer and are known to have CCNE1 amplification. Both cell lines were maintained in RPMI media supplemented with 10% fetal bovine serum. For cell growth inhibition assay, CDK inhibitors in DMSO solution were dispensed with either Echo 655 (Beckman Coulter) or Tecan D300e (HP) into 384-well plates (Corning #3765) and the 384-well plates were UV-sterilized prior to the assay. The inhibitors were typically tested in the 10-10,000 nM concentration range with half-log serial dilutions. MCF-7 or OVCAR-3 (500 cells/30 μL/well) were added to each well using Multidrop Combi (ThermoFisher) using standard cassettes. The assay plates with cells were cultured at 37° C., 5% CO2 for 6 days. At the end of the 6-day treatment, 30 μL of CellTiterGlo 2.0 (Promega) was added to each well and the luminescent signal was read using CLARIOstar plus (BMG). The percentage of cell growth inhibition (% CGI) was calculated using the following formula % CGI=100−100×luminescencesample/luminescencecontrol. The half maximal inhibitory concentration (IC50) was determined by nonlinear curve fitting (four parameters, variable slope).

Test [6] deals with MCF-7 cells. As to the kind of experiment: Cell Growth Inhibition, MCF-7 (CellTiterGlo, 6 days). It is filed as cell-based. Conditions: MCF-7, 6-day treatment, CellTiterGlo 2.0.
Excerpt: as §2
In general terms: ATP-based viability assays read luminescence as a measure of living cells.

Sequence of CDK1/Cyclin B1 (P06493 whole entry): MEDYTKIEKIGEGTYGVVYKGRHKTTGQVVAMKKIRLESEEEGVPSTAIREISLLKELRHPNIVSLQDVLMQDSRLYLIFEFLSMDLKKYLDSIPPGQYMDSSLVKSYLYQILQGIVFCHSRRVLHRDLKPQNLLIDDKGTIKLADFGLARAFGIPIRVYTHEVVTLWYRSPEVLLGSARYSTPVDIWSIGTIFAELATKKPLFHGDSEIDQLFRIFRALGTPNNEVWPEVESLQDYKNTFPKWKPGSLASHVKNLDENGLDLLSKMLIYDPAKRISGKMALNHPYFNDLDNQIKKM
Sequence of CDK1/Cyclin B1 (P14635 whole entry partner): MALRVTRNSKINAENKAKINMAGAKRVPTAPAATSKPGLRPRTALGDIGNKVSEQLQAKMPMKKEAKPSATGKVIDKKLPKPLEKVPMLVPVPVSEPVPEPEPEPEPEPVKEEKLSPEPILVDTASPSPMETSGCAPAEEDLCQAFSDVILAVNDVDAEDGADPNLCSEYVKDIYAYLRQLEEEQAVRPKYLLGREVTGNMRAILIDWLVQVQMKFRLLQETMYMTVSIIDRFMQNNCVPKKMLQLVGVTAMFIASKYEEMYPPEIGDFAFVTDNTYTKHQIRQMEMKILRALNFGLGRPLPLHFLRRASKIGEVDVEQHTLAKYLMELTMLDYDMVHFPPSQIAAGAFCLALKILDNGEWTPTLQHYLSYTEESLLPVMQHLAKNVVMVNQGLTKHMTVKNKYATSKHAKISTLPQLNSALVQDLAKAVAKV
Sequence of CDK6/Cyclin D3 (Q00534 whole entry): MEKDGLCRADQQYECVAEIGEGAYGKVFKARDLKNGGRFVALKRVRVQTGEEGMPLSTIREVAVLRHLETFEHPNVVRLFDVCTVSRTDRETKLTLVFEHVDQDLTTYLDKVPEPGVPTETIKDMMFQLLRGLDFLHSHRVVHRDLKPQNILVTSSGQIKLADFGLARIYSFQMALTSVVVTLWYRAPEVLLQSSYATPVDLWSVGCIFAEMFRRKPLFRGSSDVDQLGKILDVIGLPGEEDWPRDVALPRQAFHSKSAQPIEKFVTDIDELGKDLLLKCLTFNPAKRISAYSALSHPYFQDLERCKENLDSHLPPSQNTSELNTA
Sequence of CDK6/Cyclin D3 (P30281 whole entry partner): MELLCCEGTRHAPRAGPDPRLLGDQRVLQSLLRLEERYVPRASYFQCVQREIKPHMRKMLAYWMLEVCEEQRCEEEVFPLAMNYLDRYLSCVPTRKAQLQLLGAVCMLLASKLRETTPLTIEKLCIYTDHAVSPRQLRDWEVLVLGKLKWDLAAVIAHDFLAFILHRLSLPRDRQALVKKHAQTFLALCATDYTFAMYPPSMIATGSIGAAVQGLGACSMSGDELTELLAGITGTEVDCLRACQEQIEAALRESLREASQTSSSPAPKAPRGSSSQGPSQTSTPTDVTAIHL
Sequence of CDK4/Cyclin D1 (P11802 whole entry): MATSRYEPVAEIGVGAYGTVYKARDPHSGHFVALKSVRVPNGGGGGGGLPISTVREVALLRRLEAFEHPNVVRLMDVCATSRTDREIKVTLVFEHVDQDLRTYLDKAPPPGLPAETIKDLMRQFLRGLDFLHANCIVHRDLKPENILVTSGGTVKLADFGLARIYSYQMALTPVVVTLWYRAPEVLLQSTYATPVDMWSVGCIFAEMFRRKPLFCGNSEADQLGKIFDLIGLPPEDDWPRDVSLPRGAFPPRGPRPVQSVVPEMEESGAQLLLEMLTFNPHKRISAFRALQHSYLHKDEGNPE
Sequence of CDK4/Cyclin D1 (P24385 whole entry partner): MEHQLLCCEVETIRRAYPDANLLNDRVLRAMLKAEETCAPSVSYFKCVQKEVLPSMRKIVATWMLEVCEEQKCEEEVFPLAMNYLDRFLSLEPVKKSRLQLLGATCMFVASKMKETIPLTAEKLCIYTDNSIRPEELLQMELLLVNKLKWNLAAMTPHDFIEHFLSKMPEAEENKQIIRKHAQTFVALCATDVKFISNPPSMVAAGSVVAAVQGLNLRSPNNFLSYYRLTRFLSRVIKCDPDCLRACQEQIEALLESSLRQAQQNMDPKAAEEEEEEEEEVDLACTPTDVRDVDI

Take `CN1CCC2(C1)CN(c1cc(C(F)F)cc3cnc(NC4CCN(S(=O)(=O)C5CC5)CC4)nc13)C2` [Example 81, N-(1-(cyclopropylsulfonyl)piperidin-4-yl)-6-(difluoromethyl)-8-(6-methyl-2,6-diazaspiro[3.4]octan-2-yl)quinazolin-2-amine]: the IC50 in test [1] was 200 to 500 nM; in test [2], under 200 nM; in test [3] it was under 200 nM; in test [4], under 200 nM; in test [5] (Homo sapiens, 144 h), 500 to 2000 nM; in test [6] (Homo sapiens, MCF7, 144 h) it was 500 to 2000 nM.

Consider `CS(=O)(=O)N1CCC(Nc2ncc3cc(C(F)F)cc(C4CC5(CCN(CC(F)F)C5)C4)c3n2)CC1` (stereo not drawn) [Example 100, 8-(6-(2,2-difluoroethyl)-6-azaspiro[3.4]octan-2-yl)-6-(difluoromethyl)-N-(1-(methylsulfonyl)piperidin-4-yl)quinazolin-2-amine], for which the IC50 in test [1] is under 200 nM; in test [2], under 200 nM; in test [3], under 200 nM; in test [4], under 200 nM; in test [5] (Homo sapiens, 144 h), 500 to 2000 nM; in test [6] (Homo sapiens, MCF7, 144 h), 200 to 500 nM.

For `CN1C[C@@H]2C(Nc3ncc4cc(C(F)F)cc(N5CCC6(CCN(S(C)(=O)=O)C6)C5)c4n3)[C@@H]2C1` (stereo partly drawn) [Example 56, 6-(difluoromethyl)-N-((1R,5S,6s)-3-methyl-3-azabicyclo[3.1.0]hexan-6-yl)-8-(7-(methylsulfonyl)-2,7-diazaspiro[4.4]nonan-2-yl)quinazolin-2-amine], the IC50 in test [1] was over 2000 nM; in test [2] it was over 2000 nM; in test [3], 200 to 500 nM; in test [4], over 2000 nM; in test [5], over 2000 nM; in test [6], over 2000 nM.

Take `CS(=O)(=O)N1CCC(Nc2ncc3cc(C(F)F)cc(N4CC5(CNCC5(F)F)C4)c3n2)CC1` [Example 115, 8-(8,8-difluoro-2,6-diazaspiro[3.4]octan-2-yl)-6-(difluoromethyl)-N-(1-(methylsulfonyl)piperidin-4-yl)quinazolin-2-amine]: the IC50 in test [1] is under 200 nM; in test [2] it was under 200 nM; in test [3] it was under 200 nM; in test [4] it was under 200 nM; in test [5] (Homo sapiens, 144 h) it was 500 to 2000 nM; in test [6] (Homo sapiens, MCF7, 144 h) it was 500 to 2000 nM.

`CS(=O)(=O)N1CCC(Nc2ncc3cccc(C4CC5(CNCCO5)C4)c3n2)CC1` (stereo not drawn) [Example 110, N-(1-(methylsulfonyl)piperidin-4-yl)-8-(5-oxa-8-azaspiro[3.5]nonan-2-yl)quinazolin-2-amine]: the IC50 in test [1] was under 200 nM; in test [2], under 200 nM; in test [3] it was under 200 nM; in test [4], under 200 nM; in test [5] (Homo sapiens, 144 h), 500 to 2000 nM; in test [6] (Homo sapiens, MCF7, 144 h), 500 to 2000 nM.

On to `CN1CCc2cc(Nc3ncc4cc(C(F)F)cc(N5CC6(C5)CN(C5CC5)C6)c4n3)ccc2C1` [Example 79, 8-(6-cyclopropyl-2,6-diazaspiro[3.3]heptan-2-yl)-6-(difluoromethyl)-N-(2-methyl-1,2,3,4-tetrahydroisoquinolin-6-yl)quinazolin-2-amine], for which the IC50 in test [1] is over 2000 nM; in test [2], 200 to 500 nM; in test [3] it was under 200 nM; in test [4] it was under 200 nM; in test [5] (Homo sapiens, 144 h), 500 to 2000 nM; in test [6] (Homo sapiens, MCF7, 144 h) it was 500 to 2000 nM.

Take `CS(=O)(=O)N1CCC(Nc2ncc3cccc(C4CC(O)(C(F)F)C4)c3n2)CC1` (stereo not drawn) [Example 120, 1-(difluoromethyl)-3-(2-((1-(methylsulfonyl)piperidin-4-yl)amino)quinazolin-8-yl)cyclobutan-1-ol]: the IC50 is under 200 nM in test [1]; under 200 nM in test [2]; under 200 nM in test [3]; under 200 nM in test [4]; 200 to 500 nM in test [5] (Homo sapiens, 144 h); 500 to 2000 nM in test [6] (Homo sapiens, MCF7, 144 h).

As to `CS(=O)(=O)N1CCC(Nc2ncc3cccc(C4CC5(CCNC5)C4)c3n2)CC1` (stereo not drawn) [Example 99, N-(1-(methylsulfonyl)piperidin-4-yl)-8-(6-azaspiro[3.4]octan-2-yl)quinazolin-2-amine], the IC50 in test [1] was under 200 nM; in test [2], under 200 nM; in test [3] it was under 200 nM; in test [4], under 200 nM; in test [5] (Homo sapiens, 144 h), 200 to 500 nM; in test [6] (Homo sapiens, MCF7, 144 h), 500 to 2000 nM.

These data come from patent publication US20240092761A1, “QUINAZOLINE COMPOUNDS AND METHODS OF USE” (IAMBIC THERAPEUTICS, INC., priority 2022, published 2024).
